This experiment deals with Induced myeloid leukemia cell differentiation protein Mcl-1 (Homo sapiens, UniProt Q07820). Kind of experiment: Bcl-2 and Bcl-xL Inhibition Assay.

IC50 data for one compound are collected here from BindingDB's records for patent US11718613 (University of Michigan, 2023).

Sequence of Induced myeloid leukemia cell differentiation protein Mcl-1 (Q07820 whole entry): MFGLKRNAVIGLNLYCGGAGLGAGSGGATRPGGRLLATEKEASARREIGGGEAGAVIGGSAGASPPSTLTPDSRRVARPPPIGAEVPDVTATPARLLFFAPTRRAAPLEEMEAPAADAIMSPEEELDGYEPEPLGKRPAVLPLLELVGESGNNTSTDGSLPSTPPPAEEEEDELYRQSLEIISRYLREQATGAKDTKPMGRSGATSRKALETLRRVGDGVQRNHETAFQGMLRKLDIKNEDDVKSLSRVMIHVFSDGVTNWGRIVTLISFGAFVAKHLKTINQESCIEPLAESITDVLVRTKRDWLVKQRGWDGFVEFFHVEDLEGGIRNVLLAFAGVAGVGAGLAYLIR
Procedure: Fluorescence polarization values were measured using the Infinite M-1000 plate reader (Tecan U.S., Research Triangle Park, N.C.) in Microfluor 1 96-well, black, round-bottom plates (Thermo Scientific). […] Plates were mixed and incubated at room temperature for 1 hour with gentle shaking to assure equilibrium. […] Equilibrium dissociation constants (Kd) were then calculated by fitting the sigmoidal dose-dependent FP increases as a function of protein concentrations using Graphpad Prism 5.0 software (Graphpad Software, San Diego, Calif.).

Consider `O=C(NS(=O)(=O)c1ccc(NC[C@@H]2COCCO2)c([N+](=O)[O-])c1)c1ccc(N2CCN(CC3=C(c4ccc(Cl)cc4)CC4(CCC4)CC3)CC2)cc1Oc1cnc2[nH]ccc2c1` [US11718613, Compound 13], for which the IC50 was greater than 5 µM.
